# 8‑arm PEG = 8-arm polyethylene glycol (PEG) dendrimer, conjugated via pyridyldisulfide groups to cysteine thiols
# How the values were obtained:
# [1] = test system: circulating erythrocytes; experiment: 8-arm PEG constructs binding to circulating erythrocytes after intravenous injection, flow cytometry; type: in vivo, mouse
# Text: FIG. 17 presents experimental results depicting erythrocyte cell-surface half-life of 8-arm PEG-ERY1 (filled circles) and 8-arm PEG-MIS (empty boxes), determined by flow cytometry.
# [2] = test system: mouse erythrocytes; experiment: 8-arm PEG constructs binding to erythrocytes in vitro, flow cytometry
# [3] = test system: human epithelial 293T cells; experiment: Binding of bacteria displaying peptide to cells, flow cytometry; conditions: peptide displayed on bacteria
# Experimental: (§1) Method: To characterize specificity, individual sequenced clones were analyzed using cytometry for binding toward human erythrocytes (type A and B), mouse erythrocytes, HEK293T cells and HUVECs. For binding assays, 10^6 mammalian cells were scanned on an AccuriA6 after co-incubation with 5×10^7 bacteria for 1 h at 4° C. followed by three washes in HFS (5% HSA, 2% FBS in PBS). The percentage of cells with green bacteria bound was calculated using FLOWJO Software.
# [4] = test system: human endothelial HUVECs; experiment: as above; conditions: peptide displayed on bacteria
# Experimental: as §1
# [5] = test system: human erythrocytes (type A and B); experiment: as above; conditions: peptide displayed on bacteria, 1 h at 4° C.
# Experimental: as §1
# [6] = test system: OT-I CD8+ T cells; experiment: OT-I CD8+ T cell adoptive transfer, short-term proliferation study (Example 21); type: in vivo, mouse; conditions: intravenous
# Experimental: CD8^+ T cells from OT-I (CD45.2^+) mouse spleens were isolated using a CD8 magnetic bead negative selection kit (Miltenyi Biotec) as per the manufacturer's instructions. Freshly isolated CD8^+ OT-I cells were resuspended in PBS and labeled with […] carboxyfluorescein succinimidyl ester (CFSE, Invitrogen) for 6 min at room temperature, and the reaction was quenched for 1 min with an equal volume of IMDM with 10% FBS (Gibco). Cells were washed, counted, and resuspended in pure IMDM prior to injection. 3×10^6 CFSE-labeled CD8^+ OT-I cells were injected intravenously into the tail vein of recipient CD45.1^+ mice. For short-term proliferation studies, 10 μg of ERY1-OVA or OVA, or an equimolar dose of TER119-SIINFEKL in 100 μL volume was injected 24 h following adoptive transfer. Splenocytes were harvested 5 d following antigen administration and stained for analysis by flow cytometry.
# (§2) The following anti-mouse antibodies were used for flow cytometry: CD1d Pacific Blue, CD3E PerCP-Cy5.5, CD8a PE-Cy7, CD45.2 Pacific Blue, IFNγ-APC, CD8a APC-eF780, (all from eBioscience), in addition to fixable live/dead dye (Invitrogen), and annexin-V-Cy5 labeling kit (BioVision). Samples were analyzed on a CyAn ADP flow cytometer (Beckman Coulter). Cells were washed first with PBS, stained for 20 min on ice with live/dead dye, blocked for 20 min on ice with 24G2 hybridoma medium, surface stained for 20 min on ice, fixed in 2% paraformaldehyde for 20 min ice, intracellularly stained in the presence of 0.5% saponin for 45 min on ice, followed by a final wash prior to analysis. For apoptosis staining, annexin-V-Cy5 was added 5 min prior to analysis.
# [7] = test system: OT-I CD8+ T cells; experiment: OT-I tolerance and challenge model (Example 21); type: in vivo, mouse
# Experimental: 3×10^5 CFSE-labeled OT-I CD8^+ T cells were injected into CD45.1^+ recipient mice as described above. 1 and 6 d following adoptive transfer, mice were intravenously administered 10 μg of ERY1-OVA or OVA, or an equimolar dose of TER119-SIINFEKL in 100 μL, saline into the tail vein. 15 d following adoptive transfer, mice were challenged with 5 μg OVA and 25 ng ultra-pure Escherichia coli LPS (InvivoGen) in 25 μL intradermally into each rear leg pad (Hock method, total dose of 10 μg OVA and 50 ng LPS). Mice were sacrificed 4 d following challenge, and spleen and draining lymph node cells were isolated for restimulation. For flow cytometry analysis of intracellular cytokines, cells were restimulated in the presence of 1 mg/mL OVA or 1 μg/mL SIINFEKL peptide (Genscript) for 3 h. Brefeldin-A (Sigma, 5 μg/mL) was added and restimulation resumed for an additional 3 h prior to staining and flow cytometry analysis.
# as §2
# [8] = test system: mouse erythrocytes; experiment: scFv binding to erythrocytes, flow cytometry with anti-6×His-PE
# Experimental: FIG. 19 presents experimental results as a flow cytometry histogram. Mouse erythrocytes were incubated with TER119-SIINFEKL (grey filled histogram) or albumin (empty histogram). Fluorescent signal comes from the anti-6×His-PE antibody used in detection of the scFv.
# [9] = test system: mouse erythrocytes; experiment: TER119-ChrA binding to erythrocytes; conditions: data not shown
# [10] = test system: BDC2.5 CD4 T cells; experiment: Co-culture of BDC2.5 splenic dendritic cells and CD4 T cells, proliferation; type: cell-based, mouse; conditions: co-culture with BDC2.5 splenic dendritic cells
# Text: FIG. 24 is a plot of experimental results showing proliferation of CD4 T cells from the transgenic NODBDC2.5 mouse in co-culture with splenic DCs, with various media additives.
# To study T cell behavior towards the chromogranin-A antigen variants, the NODBDC2.5 transgenic mouse was used, which harbors T cells specific for the recognition of the chromogranin-A antigen.
# [11] = Cross-over study: reversal of pre-existing immunity towards asparaginase; type: in vivo, mouse; conditions: 21 days following multiple intravenous doses two days apart
# Experimental: A cross-over study was performed to determine if erythrocyte-binding asparaginase could reverse immunity towards clinical asparaginase. Mice were intravenously administered multiple doses of wild-type asparaginase two days apart. […] Immunized mice were then therapeutically treated with erythrocyte-binding asparaginase regimens at varying doses. In both dosing regimens, ERY-conjugated asparaginase reduced antibody levels approx. 10-fold, thus reversing pre-existing humoral immunity
# (§3) Desired dosages of ERY1-ASNase or ASNase were prepared in sterile 0.9% saline, and 100 μL of the solution was injected into the tail vein of anesthetized C57BL/6 mice. Blood was drawn at pre-determined time points either by cheek puncture or tail incisions.
# Serum from experimental groups was serially diluted into PBS and incubated for 2 h at RT on ASNase-coated ELISA plates. HRP-conjugated anti-mouse IgG (Southern Biotech) was used as the detection antibody.
# [12] = Immunogenicity of erythrocyte-bound versus wild-type asparaginase, serum IgG ELISA; type: in vivo, mouse; conditions: 2-dose regimen, 15 μg i.v. every 2 days, up to 21 days following the final injection
# Experimental: A mouse erythrocyte-binding variant of asparaginase (ERY1-ASNase) was created by conjugating the mouse erythrocyte-specific peptide ERY1 (Kontos and Hubbell, 2010). To determine the immunogenicity of erythrocyte-bound versus wild-type asparaginase, a study was performed to evaluate to evaluate two regimens, namely exposure to a 2-dose and a 6-dose regimen of the ERY conjugate (ERY1-ASNase) or the native form (ASPARAGINASE MEDAC, Medac GmbH; which was also used as the raw material for the ERY1-ASNase conjugate). In each regimen, 15 μg of ERY1-ASNase or ASNase was administered intravenously every 2 days, and blood was drawn every 7 days.
# as §3
# (§4) Anti-asparaginase antibody detection from serum method Serum from experimental groups was serially diluted into PBS and incubated for 2 h at RT on ASNase-coated ELISA plates. HRP-conjugated anti-mouse IgG (Southern Biotech) was used as the detection antibody.
# [13] = Prophylaxis study: tolerance towards wild-type asparaginase; type: in vivo, mouse; conditions: re-administration / six challenges with wild-type asparaginase
# Experimental: A prophylaxis study was performed to determine if erythrocyte-binding asparaginase induced bona-fide immune tolerance towards wild-type asparaginase. Mice previously administered with wild-type clinical asparaginase were challenged with an additional dose following the onset of humoral immunity. […] On average, mice tolerized with erythrocyte-binding asparaginase developed approx. 6000-fold fewer antibodies towards clinical wild-type asparaginase.
# as §3, §4
# [14] = following challenge with OVA and LPS
# [15] = i.v. 1 and 6 days after adoptive transfer, 4 d after OVA/LPS challenge
molecule,measurement,setting,value
8-arm PEG-ERY1: fluorescent 8-arm PEG construct conjugated with ERY1 peptide by disulfide bond (H-WMVLPWLPGTLDGGSGC(8‑arm PEG)RG-NH2; also: Cys disulfide-linked to 8-arm PEG scaffold (fluorescent)),binding to circulating erythrocytes upon intravenous injection,[1]; flow cytometry,bind to circulating erythrocytes
same,cell-surface half-life on circulating erythrocytes,[1]; intravenous administration,2.2 h
same,time detected on circulating erythrocytes following intravenous administration,[1]; intravenous administration,5 h
same,binding to mouse erythrocytes following in vitro incubation,[2],bind to mouse erythrocytes
GQSGQSWSRAILPLFKIQPVGSSGGS (Erythrocyte Binding Peptide) [ERY50],binding to epithelial 293T cells,[3],bound epithelial/endothelial cells
same,binding to endothelial HUVECs,[4],bound epithelial/endothelial cells
same,"binding to human erythrocytes, specificity as compared to 293T cells and HUVECs",[5],bound human erythrocytes
TER119-SIINFEKL: recombinant fusion of scFv TER119 to the MHC-I immunodominant domain of OVA (SGLEQLESIINFEKL; epitope),PD-1+ proliferating OT-I CD8+ T cells compared to OVA,[6]; 10 μg or equimolar dose,much higher numbers
same,annexin-V+ proliferating OT-I CD8+ T cells compared to OVA,[6]; 10 μg or equimolar dose,much higher numbers
same,OT-I CD8+ T cell proliferation (CFSE dilution) compared to ERY1-OVA or OVA,"[6]; spleen, 5 days, dose equimolar to 10 μg OVA",markedly enhanced
same,fewer IFNγ-expressing cells in lymph nodes compared to challenge control mice,[7]; [14],33 fold
same,fewer IFNγ-expressing cells in lymph nodes compared to mice treated with an equivalent dose of OVA,[7]; [14],over 14 fold
same,fewer OT-I CD8+ T cells in draining lymph nodes as compared to OVA-treated mice,[7]; [15],over 13 fold
same,fewer OT-I CD8+ T cells in draining lymph nodes than challenge control mice,[7]; [15],over 42 fold
same,binding to mouse erythrocytes,[8],bound mouse erythrocytes
TER119-ChrA: chromogranin-A mimotope 1040-p31 recombinantly fused to mouse erythrocyte-specific scFv TER119 (protein) scFv: EVKLQESGGGLVQPGGSLKLSCVASGFTFRDHWMNWVRQAPGKTMEWIGDIRPDGSDTNYAPSVRNRFTISRDNTRSILYLQMGNMRSDYTATYYCVRDSPTRAGLMDAWGQGTSVTVSSAGGGGSGGGGSGGGGSGGGGSDIQMTQSPSVLSASVGDRVTLNCKASQNINKYLNRYQQKLGEAPKVLVYNTNNLQTGIPSRFSGSGSGTDFTLTISSLQPEDFATYFCFQHYTWPTFGGVTKLEIKRTHHHHHHGGGYVRPLWVRME,binding to mouse erythrocytes,[9],tightly bound mouse erythrocytes
same,"processing and display on MHC-II, priming of antigen-specific proliferation of BDC2.5 CD4 T cells in vitro",[10],efficiently processed
"asparaginase (protein, UniProt P00805 23-348, looked up, native asparaginase, Medac GmbH) L-asparaginase 2: LPNITILATGGTIAGGGDSATKSNYTVGKVGVENLVNAVPQLKDIANVKGEQVVNIGSQDMNDNVWLTLAKKINTDCDKTDGFVITHGTDTMEETAYFLDLTVKCDKPVVMVGAMRPSTSMSADGPFNLYNAVVTAADKASANRGVLVVMNDTVLDGRDVTKTNTTDVATFKSVNYGPLGYIHNGKIDYQRTPARKHTSDTPFDVSKLNELPKVGIVYNYANASDLPAKALVDAGYDGIVSAGVGNGNLYKSVFDTLATAAKTGTAVVRSSRVPTGATTQDAEVDDAKYGFVASGTLNPQKARVLLQLALTQTKDPQQIQQIFNQY",anti-asparaginase antibodies in serum,[11],high levels of anti-asparaginase antibodies
same,asparaginase-specific antibody titers (immunogenicity),[12],induced vigorous immunity
same,antibody response after challenge with wild-type asparaginase,[13],increased or remained high

# Source: patent US9901646B2, “Methods for induction of antigen-specific immune tolerance” (École Polytechnique Fédérale de Lausanne (EPFL), priority 2010, dated 2018)
